In PMC8878047 (Pharmaceutics, 2022):

Tested on: KM mice
Type: in vivo
Settings: high-dose group, dead mice, HE staining
Procedure: After the acute toxicity test, the dead mice after oral administration and the surviving mice at the end of the observation period were promptly dissected and pathologically examined. […] We dissected the important organs (heart, liver, spleen, lung, kidney, large intestine, and small intestine) of dead mice and normal mice in the high-dose group of each drug solution. Then, the main organs were fixed in 10% buffered formalin and embedded in paraffin for 1–4 h. They were histopathologically examined under the optical microscope after slicing and staining with hematoxylin-eosin (HE) staining. No fixed parameters were compared between the treatment and control groups.

CCN1CCN(c2cc3c(cc2F)c(=O)c(C(=O)[O-])cn3C2CC2)CC1.[Na+] [EFX-Na, reference compound]
histopathological finding in kidney tissue: more and larger glomeruli in kidney tissue
